{"source": "patent US11834424B2", "about": "“Compounds useful as chaperone-mediated autophagy modulators” (ALBERT EINSTEIN COLLEGE OF MEDICINE, priority 2018, dated 2023)", "key": {"[1]": {"system": "chaperone-mediated autophagy (CMA) in NIH 3T3 fibroblasts", "experiment": "Photoswitchable KFERQ-Dendra CMA reporter assay in NIH 3T3 fibroblasts", "assay_type": "cell-based", "protocol": "The photoactivatable CMA reporter assay was constructed by inserting a sequence of 21 amino acid of Ribonuclease A bearing the CMA-targeting motif in the N-terminus multicloning site of the photoactivatable protein mCherryl or the photoswitchable protein Dendra 2.\nNIH 3T3 fibroblasts were stably transduced with a photoconvertible CMA reporter, KFERQ-Dendra. were photoswitched by exposure to a […] (constant current) LED (Norlux, 405 nm) for 10 minutes and at the desired times fixed in 3% formaldehyde. Test cells were exposed to the indicated concentrations of the compounds for 12 hours (FIG. 3A) or 24 hours (FIG. 3B). Cells were imaged using high content microscopy (Operetta, Perkin Elmer) or by capturing images with an Axiovert 200 fluorescence microscope (Zeiss) with apotome and equipped with a 63/1.4 NA oil objective lens and red (ex. 570/30 nm, em. 615/30 nm), cyan (ex. 365/50 nm and em. 530/45 nm) and green (ex. 475/40 nm and em. 535/45 nm) filter sets (Chroma). Images were acquired with a high-resolution CCD camera after optical sectioning through the apotome. CMA activity measured as the average number of fluorescent puncta (CMA active lysosomes) per cell. Values are expressed relative to values in untreated cells that were assigned an arbitrary value of 1 and are mean of >2,500 cells counted per condition. The S.D. in all instances was <0.01% mean value. Table 2 provides a comparison of compounds CA39.1 and its comparative example CA39 and CA77.01 and its comparative example CA77."}, "[2]": {"experiment": "Pharmacokinetics (plasma and brain levels) in ICR (CD-1) mice", "assay_type": "in vivo", "conditions": "i.v. 1 mg/kg; for Conc. in brain, individual animal / concentration at 0.083 h / concentration at 0.25 h / concentration at 0.5 h / concentration at 1 h / concentration at 2 h / concentration at 4 h: mouse brain; for Conc. in plasma, individual animal: mouse plasma; for Brain/Plasma ratio, individual animal / concentration at 0.083 h / concentration at 0.25 h / concentration at 0.5 h / concentration at 1 h / concentration at 2 h / concentration at 4 h: mouse; for concentration at 0.083 h / concentration at 0.25 h / concentration at 0.5 h / concentration at 1 h / concentration at 2 h / concentration at 4 h: male, ICR (CD-1), brain, iv", "protocol": "ICR (CD-1) male mice were fasted at least three horns and water was available ad libitum before the study. Animals were housed in a controlled environment, target conditions: temperature 18 to 29° C., relative humidity 30 to 70%. Temperature and relative humidity was monitored daily. An electronic time controlled lighting system was used to provide a 12 h light/12 h dark cycle. 3 mice for each indicated time point. ICR (CD-1) mice were administered CA77 at 1 mg/kg i.v. and 30 mg/kg p.o. or CA77.1 at 1 mg/kg i.v. (FIG. 2A) and 10 mg/kg p.o. (FIG. 2B). Three (3) mice were included in each dosage and time group. Mice were sacrificed and plasma and brains were obtained at 0.083, 0.25, 0.50, 1.0, 2.0, 4.0, 8.0, and 24.0 hours after administration and drug concentration determined using LC-MS/MS. Brains were removed, homogenized with a tissue homogenizer in cold 5% w/v BSA in phosphate buffer saline (PBS). A 100 microliter aliquots of brain samples were dispensed in to glass culture tubes and mixed with ethyl acetate (800 μl), vortexed, and centrifuged. The organic layer was transferred to a fresh culture tube, dried under nitrogen, and reconstituted in mobile phase for quantitation. Pharmacokinetic parameters were determined by standard methods using Phoenix WinNonlin 6.3 software.\nTables 3A and 3B provide the concentrations of CA77 in ICR (CD-1) mouse plasma (3A) and mouse brain (3B) following i.v. administration of 1 mg/kg CA77. Table 3C provides the brain/plasma ratio of CA77 following i.v. administration of 1 mg/kg CA77. Shaded cells indicate data not included in statistics due to aberrant value. BLQ=Below Limit of Quantitation.\nTables 5A and 5B provide the concentrations of CA77.1 in ICR (CD-1) mouse plasma (5A) and mouse brain (5B) following i.v. administration of 1 mg/kg CA77.1. Table 5C provides the brain/plasma ratio of CA77.1 following i.v. administration of 1 mg/kg CA77.1. The plasma and brain pharmacokinetic parameters for CA77.1 are provided in Table 6. *—cells contain data not present in the statistics."}}, "note": "Where “and” joins values, the source holds several entries; their conditions need not be identical. Equal entries are not always repeated. Entries after “also recorded” stand apart in the source; their conditions may differ. Where two headings read alike, the source gives them in different places."}
{"molecule": "CC(=O)Nc1ccc(-c2cnc3cc(Cl)ccc3n2)cc1", "note": "[CA77.1, N-(4-(6-chloroquinoxalin-2-yl)phenyl)acetamide]", "values": [{"measurement": "CMA activity (fluorescent puncta per cell, relative to untreated cells = 1)", "setting": "[1]; Time 5", "result": 2.53}, {"measurement": "CMA activity (fluorescent puncta per cell, relative to untreated cells = 1)", "setting": "[1]; Time 10", "result": 3.365}, {"measurement": "CMA activity (fluorescent puncta per cell, relative to untreated cells = 1)", "setting": "[1]; Time 20", "result": 5.858}, {"measurement": "CMA activity (fluorescent puncta per cell, relative to untreated cells = 1)", "setting": "[1]; Time 30", "result": 5.889}, {"measurement": "CL obs", "setting": "[2]; ICR (CD-1) mice", "result": 53, "unit": "mL/min/kg"}, {"measurement": "VSS_obs", "setting": "[2]; ICR (CD-1) mice", "result": 6.463, "unit": "L/kg"}, {"measurement": "Conc. in brain, individual animal", "setting": "[2]; 0.083 h, 1 mg/kg", "result": "1171 ng/g and 970 ng/g"}, {"measurement": "Conc. in brain, individual animal", "setting": "[2]; 0.25 h, 1 mg/kg", "result": "813 ng/g and 691 ng/g"}, {"measurement": "Conc. in brain, individual animal", "setting": "[2]; 0.50 h, 1 mg/kg", "result": "677 ng/g and 1083 ng/g"}, {"measurement": "Conc. in brain, individual animal", "setting": "[2]; 1.00 h, 1 mg/kg", "result": "628 ng/g and 781 ng/g"}, {"measurement": "Conc. in brain, individual animal", "setting": "[2]; 2.00 h, 1 mg/kg", "result": "269 ng/g and 186 ng/g"}, {"measurement": "Conc. in brain, individual animal", "setting": "[2]; 4.00 h, 1 mg/kg", "result": "13.6 ng/g and 24.9 ng/g"}, {"measurement": "Conc. in brain, individual animal", "setting": "[2]; 8.00 h, 1 mg/kg", "result": "3.31 ng/g and 3.66 ng/g"}, {"measurement": "Conc. in brain, individual animal", "setting": "[2]; 24.0 h", "result": 0, "unit": "ng/g"}, {"measurement": "Conc. in plasma, individual animal", "setting": "[2]; 0.083 h, 1 mg/kg", "result": "178 ng/mL and 214 ng/mL"}, {"measurement": "Conc. in plasma, individual animal", "setting": "[2]; 0.25 h, 1 mg/kg", "result": "152 ng/mL and 104 ng/mL"}, {"measurement": "Conc. in plasma, individual animal", "setting": "[2]; 0.50 h, 1 mg/kg", "result": "247 ng/mL and 100 ng/mL and 481 ng/mL"}, {"measurement": "Conc. in plasma, individual animal", "setting": "[2]; 1.00 h, 1 mg/kg", "result": "79.3 ng/mL and 85.0 ng/mL"}, {"measurement": "Conc. in plasma, individual animal", "setting": "[2]; 2.00 h, 1 mg/kg", "result": "30.8 ng/mL and 38.5 ng/mL and 69.4 ng/mL"}, {"measurement": "Conc. in plasma, individual animal", "setting": "[2]; 4.00 h, 1 mg/kg", "result": "3.31 ng/mL and 3.33 ng/mL and 10.2 ng/mL"}, {"measurement": "Conc. in plasma, individual animal", "setting": "[2]; 8.00 h, 1 mg/kg", "result": "1.43 ng/mL and 1.42 ng/mL"}, {"measurement": "Conc. in plasma, individual animal", "setting": "[2]; 24.0 h, 1 mg/kg", "result": "*7.61 ng/mL; also recorded: *16.6 ng/mL"}, {"measurement": "Brain/Plasma ratio, individual animal", "setting": "[2]; 0.083 h, 1 mg/kg", "result": "6.57 and 4.53"}, {"measurement": "Brain/Plasma ratio, individual animal", "setting": "[2]; 0.25 h, 1 mg/kg", "result": "5.35 and 6.67"}, {"measurement": "Brain/Plasma ratio, individual animal", "setting": "[2]; 0.50 h, 1 mg/kg", "result": "2.74 and 6.77 and 2.25"}, {"measurement": "Brain/Plasma ratio, individual animal", "setting": "[2]; 1.00 h, 1 mg/kg", "result": "7.92 and 9.19"}, {"measurement": "Brain/Plasma ratio, individual animal", "setting": "[2]; 2.00 h, 1 mg/kg", "result": "8.97 and 7.00 and 2.68"}, {"measurement": "Brain/Plasma ratio, individual animal", "setting": "[2]; 4.00 h, 1 mg/kg", "result": "5.48 and 4.09 and 2.44"}, {"measurement": "Brain/Plasma ratio, individual animal", "setting": "[2]; 8.00 h, 1 mg/kg", "result": "2.31 and 2.59"}, {"measurement": "concentration at 0.083 h", "setting": "[2]; 1 mg/kg, 0.083 h, read-out: Conc. in brain, Mean", "result": 1060, "unit": "ng/g"}, {"measurement": "concentration at 0.083 h", "setting": "[2]; 1 mg/kg, 0.083 h, read-out: Conc. in brain, individual animal", "result": 1030, "unit": "ng/g"}, {"measurement": "concentration at 0.25 h", "setting": "[2]; 1 mg/kg, 0.25 h, read-out: Conc. in brain, Mean", "result": 789, "unit": "ng/g"}, {"measurement": "concentration at 0.25 h", "setting": "[2]; 1 mg/kg, 0.25 h, read-out: Conc. in brain, individual animal", "result": 864, "unit": "ng/g"}, {"measurement": "concentration at 0.5 h", "setting": "[2]; 1 mg/kg, 0.50 h, read-out: Conc. in brain, Mean", "result": 812, "unit": "ng/g"}, {"measurement": "concentration at 0.5 h", "setting": "[2]; 1 mg/kg, 0.50 h, read-out: Conc. in brain, individual animal", "result": 677, "unit": "ng/g"}, {"measurement": "concentration at 1 h", "setting": "[2]; 1 mg/kg, 1.00 h, read-out: Conc. in brain, Mean", "result": 669, "unit": "ng/g"}, {"measurement": "concentration at 1 h", "setting": "[2]; 1 mg/kg, 1.00 h, read-out: Conc. in brain, individual animal", "result": 597, "unit": "ng/g"}, {"measurement": "concentration at 2 h", "setting": "[2]; 1 mg/kg, 2.00 h, read-out: Conc. in brain, Mean", "result": 244, "unit": "ng/g"}, {"measurement": "concentration at 2 h", "setting": "[2]; 1 mg/kg, 2.00 h, read-out: Conc. in brain, individual animal", "result": 276, "unit": "ng/g"}, {"measurement": "concentration at 4 h", "setting": "[2]; 1 mg/kg, 4.00 h, read-out: Conc. in brain, Mean", "result": 19, "unit": "ng/g"}, {"measurement": "concentration at 4 h", "setting": "[2]; 1 mg/kg, 4.00 h, read-out: Conc. in brain, individual animal", "result": 18.2, "unit": "ng/g"}]}
